Source: patent publication US20040229810A1, “Gastrin compositions and formulations, and methods of use and preparation” (priority 2002, published 2004)
Where two headings read alike, the source gives them in different places. Blank lines part the entries; values can stand above or below the compound they belong to. Where a SMILES comes first, the peptide text is derived from it. Where no end group is shown, it is not given here. [ ]: non-standard residue; d: D form. pGlu = O=C1CC[C@@H](C(=O)O)N1

Tests used:
in vivo = details: male, cynomolgus monkey, iv
[1] = tested on: NOD mice with recent onset diabetes; assay: Modified vs unmodified gastrin in combination with GLP-1 in preventing diabetes progression in NOD mice with recent onset diabetes; format: in vivo; details: in combination with GLP-1 (100 μg/kg/day); gastrin compound 3 μg/kg/day gastrin equivalent i.p. daily for 14 days; compared to GLP-1 with native gastrin (Compound B)
Excerpt: In this example, the effect of treatment by a combination of GLP-1 and unmodified gastrin and GLP-1 and modified gastrin compounds/conjugates were examined in NOD mice with recent onset diabetes, to determine whether administration of both GLP-1 and gastrin would prevent severe hyperglycemia as well as increase pancreatic insulin content in NOD mice with recent-onset diabetes. The GLP-1 used was GLP-1 which is the biologically active fragment of human/mouse GLP-1 (having residues at positions 7-36 compared to the precursor from which the fragment is processed; obtained from Bachem H6795). […]
Non-obese diabetic (NOD) female mice, ages 12-14 weeks, were monitored for development of onset of diabetes (fasting blood glucose >8.0 to 15 mmol/l), and within 48 hours after onset of symptoms, four groups of mice were each treated as follows: one group was treated with vehicle only; and the other group was administered 100 μg/kg/day of GLP-1, and the remaining groups were treated with combination of GLP-1 (100 μg/kg/day) and gastrin compound (3 μg/kg/day gastrin equivalent), each treatment administered via the intraperitoneal route daily.
Therapy was administered for 14 days. Animals were monitored weekly for fasting blood glucose (FBG) levels. FBG levels were measured at about 12 hours after food had been withdrawn, and 24 hours after the last peptide or vehicle injection. […]

[2] = cited from earlier work

AUC (in vivo; 3 ug/kg): 4.18 ng·h/mL
Cmax (in vivo; 3 ug/kg): 27 ng/mL
Tmax (in vivo; 3 ug/kg): 2 min
half-life (in vivo; 3 ug/kg, t ½): 5 min
AUC (in vivo; 30 ug/kg): 42.1 ng·h/mL
Cmax (in vivo; 30 ug/kg): 268 ng/mL
Tmax (in vivo; 30 ug/kg): 1 min
half-life (in vivo; 30 ug/kg, plasma t1/2): 4 to 5 min
half-life (in vivo; 30 ug/kg, t ½): 5 min
AUC (in vivo; cynomolgus, 10 ug/kg): 15.7 ng·h/mL
Cmax (in vivo; cynomolgus, 10 ug/kg): 127 ng/mL
Tmax (in vivo; cynomolgus, 10 ug/kg): 1 min
half-life (in vivo; cynomolgus, 10 ug/kg, t ½): 4 min
Compound: CC(C)C[C@H](NC(=O)[C@H](Cc1c[nH]c2ccccc12)NC(=O)CNC(=O)[C@H](Cc1ccc(O)cc1)NC(=O)[C@H](C)NC(=O)[C@H](CCC(=O)O)NC(=O)[C@H](CCC(=O)O)NC(=O)[C@H](CCC(=O)O)NC(=O)[C@H](CCC(=O)O)NC(=O)[C@H](CCC(=O)O)NC(=O)[C@H](CC(C)C)NC(=O)[C@H](Cc1c[nH]c2ccccc12)NC(=O)[C@@H]1CCCN1C(=O)CNC(=O)[C@@H]1CCC(=O)N1)C(=O)N[C@@H](CC(=O)O)C(=O)N[C@@H](Cc1ccccc1)C(N)=O [Compound B] ([pGlu]GPWLEEEEEAYGWLDF-NH2)

Compound: Compound E: gastrin peptide residues 2-17 of SEQ ID NO: 4 with N-terminal Cys residue, no linker (CGPWLEEEEEAYGWLDF; not fully specified (C-terminus); ends and bridges not checked)
reducing blood glucose levels in diabetic animals [1]: more effecting in reducing blood glucose levels

Compound: Compound Q: human serum albumin conjugate of N-terminal Cys gastrin peptide residues 2-17 of SEQ ID NO: 4 with (GA)5 linker (GPWLEEEEEAYGWLDF; not fully specified (N-terminus, C-terminus); ends and bridges not checked; also: human serum albumin conjugate)
reducing blood glucose levels in diabetic animals [1]: more effecting in reducing blood glucose levels

Compound: Gastrin-17
circulating half-life ([2]; in vivo): 5 to 9 min

Compound: gastrin-34 ([pGlu]LGPQGPPHLVADPSKKQGPWLEEEEEAYGWMDF-NH2; ends and bridges not checked; UniProt P01350 59-92, looked up)
circulating half-life ([2]; background statement): about 35 mins
